Publication PMC9607537, “Understanding the Antilymphoma Activity of Annona macroprophyllata Donn and Its Acyclic Terpenoids: In Vivo, In Vitro, and In Silico Studies” (Molecules, 2022)
Read-outs that look alike come from different tables or passages of the source.

Experiments:
Artemia salina larvae = assay: Brine shrimp lethality (BSL) test; assay type: in vivo; details: mortality at 24 h, mean ± SEM
Method: To obtain the LD50 of the thirteen compounds isolated by TLC, we performed the brine shrimp assay according to the procedure described by Meyer et al.. We exposed groups of 10 shrimp in brine to concentrations of 0.5, 1, 5, 10 µg mL^−1 of each product (P1-P13). The concentrations were reached by dissolving the compounds in 2 mL of ethanol, subsequently transferring to different flasks. After evaporating the solvent at room temperature, we introduced the BS and adjusted the volume with artificial seawater to 5 mL. We performed this test in triplicate for each compound.

U-937 cells = assay: cells; details: read-out: CC50 (median cytotoxic concentration causing 50% cell death)
Method: The cell line U-937 was acquired (ATCC: CRL 1593.2, Middlesex, UK) and characterized as a type of diffuse monocytic NHL; for its propagation two million cells were used and seeded in RPMI 1640 medium (Roswell Park Memorial Institute) supplemented with 2 mM L-glutamine, 10% v/v fetal bovine serum (Thermo), 100 mM 1% sodium pyruvate, and 1% penicillin/streptomycin. The cells were kept in an atmosphere with a concentration of carbon dioxide (CO2) at 5% at 37 °C.
We evaluated the in vitro cytotoxic activity using the cell proliferation reagent WST-1, based on the cleavage of tetrazolium salts to formazan by the enzyme mitochondrial dehydrogenase. For cell proliferation, the Quick Cell Proliferation Kit II (Abcam, Cambridge, UK, Cat. No. ab65475) was used, 96-well plates were used and 2 × 10^5 cells per well were seeded in a final volume of 100 µL/well of culture medium. […] After 24 h, viability was assessed by the addition of 10 µL of WST-1 reagent and the cells were further incubated for 2 h at 37 °C and 5% CO2. Finally, the absorbance at 440 nm was measured using a microplate reader.

[1] = system: lymph node growth in mice inoculated with U-937 cells; assay: Antilymphoma activity in Balb/c mice inoculated with U-937 cells; assay type: in vivo; details: oral, 9 days treatment, mean ± SEM, n = 6; for ED50 Female (inhibition of lymph node growth): female Balb/c mice inoculated with U-937 cells; for ED50 Male (inhibition of lymph node growth): male Balb/c mice inoculated with U-937 cells
Excerpt: We induced lymphoma following the method of Calzada et al.. We randomly formed fifteen groups of male mice and of female mice (n = 6). […] After cell inoculation, we observed all animals for the following 28 days, after which we orally administered treatments for 9 days. Over the following 28 days, we recorded the weight and survival of the animals. Finally, at day 65, we sacrificed the animals and removed and weighed the left and right axillary and inguinal lymph nodes.

in vivo = details: female, Balb/c, mouse, in vivo, po
Method: (§1) Twenty-four female mice of the Balb/c strain were randomly used to form 8 groups (n = 3). […] The control group was administered with only the vehicle (Tween 80 at 2% in water) and for the compounds, doses of 500 and 1000 mg kg^−1 were administered. […] Subsequently, we sacrificed the animals and extracted the organs (stomach, intestines, spleen, liver, and kidneys) were extracted, reporting the pathological changes, if any.

Balb/c mice = assay: in vivo; details: for TI Female (therapeutic index, LD50/ED50) / TI Male (therapeutic index, LD50/ED50): LD50 acute oral toxicity / ED50 antilymphoma activity; for TI Female (therapeutic index, LD50/ED50): female mice; for TI Male (therapeutic index, LD50/ED50): male mice; for OECD acute systemic toxicity category: acute oral toxicity, OECD guideline 423; for OECD acute systemic toxicity category / Mortality in acute oral toxicity test: mice; for Mortality in acute oral toxicity test: until end of study (14 days)
Method: as §1

U-937 cell line = system: U-937 cell line; design: method as in PMID 34638856; details: viability analysis by flow cytometry; cited from earlier work

Row | Compound | LD50 (median lethal dose causing 50% of A. salina death) (Artemia salina larvae; n = 3, listed as AF) | LD50 (median lethal dose causing 50% of A. salina death) (Artemia salina larvae; n = 3, listed as FA (P10)) | CC50 (U-937 cells; Homo sapiens, U-937, 24 h) | ED50 Female (inhibition of lymph node growth) [1] | ED50 Male (inhibition of lymph node growth) [1] | LD50 at 14 days (in vivo) | TI Female (therapeutic index, LD50/ED50) (Balb/c mice) | TI Male (therapeutic index, LD50/ED50) (Balb/c mice) | OECD acute systemic toxicity category (Balb/c mice) | TI (therapeutic index) in both sexes (Balb/c mice) | Mortality in acute oral toxicity test (Balb/c mice; single oral dose) | LD50 (median lethal dose causing 50% of A. salina death) (Artemia salina larvae; n = 3) | CC50 (U-937 cell line) | CC50 (U-937 cells; U-937 cells, 24 h exposure, WST-1, mean ± SEM, n = 3) | LD50 (median lethal dose, acute oral toxicity) (Balb/c mice; female Balb/c mice, single oral dose, 14 days observation, n = 3)
1 | CC(=O)OC/C=C(\C)CC/C=C(\C)CCC=C(C)C [FA, [(E,E)-3,7,11-trimethyldodeca-2,6,10-trienyl] acetate] | 5.82 ± 0.58 µg/mL | 5.82 ± 0.58 µg/mL | 275 ± 80 µM | 5.89 ± 0.39 mg/kg | 5.09 ± 0.66 mg/kg | > 1000 mg/kg | 169.77 | 196.46 | category 4 (category 4, low risk > 300 and ≤2000 mg/kg) | > 100 | did not cause mortality | – | – | – | –
2 | CC(C)=CCC/C(C)=C/CC/C(C)=C/CC/C(C)=C/CO [Gg, (2E,6E,10E)-3,7,11,15-tetramethylhexadeca-2,6,10,14-tetraen-1-ol] | – | – | 395 ± 5 µM | 7.22 ± 0.51 mg/kg | 6.98 ± 0.57 mg/kg | 742.17 ± 0.34 mg/kg | 138.5 | – | category 4 (category 4, low risk > 300 and ≤2000 mg/kg) | > 100 | caused death in the animals | 1.41 ± 0.42 µg/mL | – | – | –
3 | CN(Cc1cnc2nc(N)nc(N)c2n1)c1ccc(C(=O)N[C@@H](CCC(=O)O)C(=O)O)cc1 [MTX, methotrexate, reference compound] | – | – | 243 ± 7 µM | 1.31 ± 0.34 mg/kg | 0.99 ± 0.024 mg/kg | 335 ± 0.39 mg/kg | – | – | – | – | – | – | 0.5 µM | – | –
4 | (2E,7R,11R)-3,7,11,15-tetramethylhexadec-2-en-1-ol [PT] | – | – | – | 6.71 ± 0.31 mg/kg | 5.83 ± 0.50 mg/kg | – | 149.03 | 171.52 | category 4 (category 4, low risk > 300 and ≤2000 mg/kg) | > 100 | did not cause mortality | 3.03 ± 0.33 µg/mL | – | 296 ± 70 µM | >1000 mg/kg
